Experimental data: ChEMBL document CHEMBL2429821, “A Casein kinase 1/Checkpoint kinase 1 pyrazolo-pyridine protein kinase inhibitor as novel activator of the p53 pathway” (Bioorg Med Chem Lett, 2013)
Each block holds one compound with its values, some of them ahead of it. Calls of active or inactive are those of the source. The calls are words filed in the database; no cut-off is given here.

Experiments:
Rattus norvegicus [1] = organism: Rattus norvegicus; experiment: Inhibition of rat AMPK assessed as residual activity at 25 uM relative to control
Oryctolagus cuniculus [2] = organism: Oryctolagus cuniculus; experiment: Inhibition of rabbit MKK1 assessed as residual activity at 25 uM relative to control
[3] = molecular target: Rho-associated protein kinase 2 (Rattus norvegicus) (UniProt Q62868); experiment: Inhibition of rat ROCK2 assessed as residual activity at 25 uM relative to control
Rho-associated protein kinase 2 (Rattus norvegicus), sequence (Q62868 whole entry, looked up): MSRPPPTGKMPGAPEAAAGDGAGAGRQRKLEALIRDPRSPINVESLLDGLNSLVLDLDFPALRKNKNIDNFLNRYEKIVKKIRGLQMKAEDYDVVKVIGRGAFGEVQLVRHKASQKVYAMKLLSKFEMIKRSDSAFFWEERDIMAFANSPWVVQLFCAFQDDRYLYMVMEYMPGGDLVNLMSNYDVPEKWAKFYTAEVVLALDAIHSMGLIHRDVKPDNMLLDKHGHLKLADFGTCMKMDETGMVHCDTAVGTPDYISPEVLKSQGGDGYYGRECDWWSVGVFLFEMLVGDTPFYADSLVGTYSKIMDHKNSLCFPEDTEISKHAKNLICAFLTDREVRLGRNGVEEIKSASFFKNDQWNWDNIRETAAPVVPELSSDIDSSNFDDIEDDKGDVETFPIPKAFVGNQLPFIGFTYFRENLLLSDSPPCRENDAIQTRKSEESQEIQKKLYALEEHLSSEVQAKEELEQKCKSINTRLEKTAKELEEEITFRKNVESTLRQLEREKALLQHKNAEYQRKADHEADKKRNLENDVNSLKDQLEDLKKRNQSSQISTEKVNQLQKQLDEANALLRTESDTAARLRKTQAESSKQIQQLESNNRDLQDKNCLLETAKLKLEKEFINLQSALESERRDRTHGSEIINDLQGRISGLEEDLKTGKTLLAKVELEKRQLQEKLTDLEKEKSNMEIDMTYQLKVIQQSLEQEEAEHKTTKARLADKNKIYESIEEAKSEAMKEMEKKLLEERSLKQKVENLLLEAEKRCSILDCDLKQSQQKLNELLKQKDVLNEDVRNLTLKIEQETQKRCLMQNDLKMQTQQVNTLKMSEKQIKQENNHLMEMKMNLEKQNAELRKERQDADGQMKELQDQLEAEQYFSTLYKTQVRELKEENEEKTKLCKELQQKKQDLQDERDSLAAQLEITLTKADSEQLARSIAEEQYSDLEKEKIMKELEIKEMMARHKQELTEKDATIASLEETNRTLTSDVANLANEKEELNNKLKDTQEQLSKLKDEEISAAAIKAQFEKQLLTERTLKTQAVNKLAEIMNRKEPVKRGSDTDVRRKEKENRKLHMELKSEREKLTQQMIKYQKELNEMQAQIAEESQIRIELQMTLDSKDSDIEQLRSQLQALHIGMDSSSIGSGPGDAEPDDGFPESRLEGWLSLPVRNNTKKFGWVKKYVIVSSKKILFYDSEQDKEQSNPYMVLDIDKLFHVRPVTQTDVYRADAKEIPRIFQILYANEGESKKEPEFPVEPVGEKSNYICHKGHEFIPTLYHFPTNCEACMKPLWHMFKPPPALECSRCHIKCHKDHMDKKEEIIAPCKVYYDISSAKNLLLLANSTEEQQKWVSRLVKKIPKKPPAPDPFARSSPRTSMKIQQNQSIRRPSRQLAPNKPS

[4] = molecular target: Cyclin-dependent kinase 2 (Homo sapiens) (UniProt P24941); experiment: Inhibition of human CDK2 assessed as residual activity at 25 uM relative to control
[5] = molecular target: Dual specificity tyrosine-phosphorylation-regulated kinase 1A (Rattus norvegicus) (UniProt Q63470); experiment: Inhibition of rat DYRK1alpha assessed as residual activity at 25 uM relative to control
[6] = molecular target: Proto-oncogene tyrosine-protein kinase Src (Homo sapiens) (UniProt P12931); experiment: Inhibition of human SRC assessed as residual activity at 25 uM relative to control
Proto-oncogene tyrosine-protein kinase Src (Homo sapiens), sequence (P12931 2-536 limits assumed): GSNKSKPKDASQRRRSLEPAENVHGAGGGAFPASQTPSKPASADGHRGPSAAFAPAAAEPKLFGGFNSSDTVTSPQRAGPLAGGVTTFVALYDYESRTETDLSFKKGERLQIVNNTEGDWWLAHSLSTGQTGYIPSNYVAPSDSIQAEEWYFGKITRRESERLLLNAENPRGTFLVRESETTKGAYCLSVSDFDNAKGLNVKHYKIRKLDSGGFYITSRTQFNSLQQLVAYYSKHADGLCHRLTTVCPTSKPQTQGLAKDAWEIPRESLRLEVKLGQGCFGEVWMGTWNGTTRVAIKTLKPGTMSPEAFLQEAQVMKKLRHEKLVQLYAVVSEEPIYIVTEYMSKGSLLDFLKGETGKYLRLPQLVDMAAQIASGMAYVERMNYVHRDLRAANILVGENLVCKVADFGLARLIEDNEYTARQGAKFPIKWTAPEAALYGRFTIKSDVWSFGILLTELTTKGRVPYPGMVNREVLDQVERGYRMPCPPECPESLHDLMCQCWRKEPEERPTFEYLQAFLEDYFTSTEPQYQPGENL

Bos taurus = organism: Bos taurus; experiment: Inhibition of cow PKA assessed as residual activity at 25 uM relative to control
[7] = molecular target: Casein kinase I isoform delta (Rattus norvegicus) (UniProt Q06486); experiment: Inhibition of rat CK1delta assessed as residual activity at 25 uM relative to control
Casein kinase I isoform delta (Rattus norvegicus), sequence (Q06486 whole entry, looked up, canonical isoform): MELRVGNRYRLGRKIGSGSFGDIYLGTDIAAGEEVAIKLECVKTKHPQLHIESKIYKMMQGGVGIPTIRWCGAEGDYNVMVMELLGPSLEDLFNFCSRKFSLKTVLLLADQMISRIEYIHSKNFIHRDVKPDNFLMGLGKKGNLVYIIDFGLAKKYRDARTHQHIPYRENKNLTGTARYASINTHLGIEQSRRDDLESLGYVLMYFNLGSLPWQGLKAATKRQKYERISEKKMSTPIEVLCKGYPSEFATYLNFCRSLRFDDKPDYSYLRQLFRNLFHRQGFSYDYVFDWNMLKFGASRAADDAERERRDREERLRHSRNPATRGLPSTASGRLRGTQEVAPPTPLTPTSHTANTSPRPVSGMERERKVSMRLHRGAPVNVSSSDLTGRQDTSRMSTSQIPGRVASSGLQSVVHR

A-375 [8] = experiment: Cell cycle arrest in human A375 cells assessed as accumulation at G2-M phase at 10 uM after 48 hrs by FACS flow cytometric analysis (reference value: 17.3%); type: functional
A-375 [9] = experiment: Cell cycle arrest in human A375 cells assessed as accumulation at sub-G1 phase at 10 uM after 48 hrs by FACS flow cytometric analysis (reference value: 2.17%); type: functional
A-375 [10] = experiment: Cell cycle arrest in human A375 cells assessed as accumulation at S phase at 80 uM after 48 hrs by FACS flow cytometric analysis (reference value: 25.1%); type: functional
A-375 [11] = experiment: Cell cycle arrest in human A375 cells assessed as accumulation at G2-M phase at 40 uM after 48 hrs by FACS flow cytometric analysis (reference value: 17.3%); type: functional
A-375 [12] = experiment: Cell cycle arrest in human A375 cells assessed as accumulation at G2-M phase at 80 uM after 48 hrs by FACS flow cytometric analysis (reference value: 17.3%); type: functional
[13] = molecular target: Casein kinase I isoform delta (Rattus norvegicus, UniProt Q06486); experiment: Inhibition of rat CK1delta in presence of 20 uM ATP
Casein kinase I isoform delta, sequence (Q06486 whole entry, canonical isoform): as the sequence (Q06486 whole entry, looked up, canonical isoform) above

A-375 [14] = experiment: Cell cycle arrest in human A375 cells assessed as accumulation at sub-G1 phase at 20 uM after 48 hrs by FACS flow cytometric analysis (reference value: 2.17%); type: functional
[15] = molecular target: Mitogen-activated protein kinase 14 (Homo sapiens, UniProt Q16539); experiment: Inhibition of human p38alpha MAPK in presence of 50 uM ATP; conditions: read-out: IC50
Mitogen-activated protein kinase 14, sequence (Q16539 whole entry): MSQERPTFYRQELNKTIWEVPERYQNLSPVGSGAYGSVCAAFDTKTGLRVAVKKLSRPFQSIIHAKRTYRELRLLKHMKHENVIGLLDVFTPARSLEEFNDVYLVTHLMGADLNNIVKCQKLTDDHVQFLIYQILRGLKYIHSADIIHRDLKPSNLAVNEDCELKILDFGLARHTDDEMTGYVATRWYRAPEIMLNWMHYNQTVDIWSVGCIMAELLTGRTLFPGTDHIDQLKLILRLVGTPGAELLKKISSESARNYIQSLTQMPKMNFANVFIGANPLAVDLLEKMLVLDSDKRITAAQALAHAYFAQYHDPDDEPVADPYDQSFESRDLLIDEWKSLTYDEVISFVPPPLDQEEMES

[16] = molecular target: Cyclin-dependent kinase 2 (Homo sapiens) (UniProt P24941); experiment: Inhibition of human CDK2 assessed as residual activity at 10 uM relative to control
A-375 [17] = experiment: Cell cycle arrest in human A375 cells assessed as accumulation at G0-G1 phase at 10 uM after 48 hrs by FACS flow cytometric analysis (reference value: 55.4%); type: functional
A-375 [18] = experiment: Cell cycle arrest in human A375 cells assessed as accumulation at S phase at 40 uM after 48 hrs by FACS flow cytometric analysis (reference value: 25.1%); type: functional
A-375 [19] = experiment: Cell cycle arrest in human A375 cells assessed as accumulation at sub-G1 phase at 80 uM after 48 hrs by FACS flow cytometric analysis (reference value: 2.17%); type: functional
[20] = molecular target: Rho-associated protein kinase 2 (Rattus norvegicus) (UniProt Q62868); experiment: Inhibition of rat ROCK2 assessed as residual activity at 10 uM relative to control
A-375 [21] = experiment: Cytotoxicity against human A375 cells assessed as reduction in cell number at 10 to 40 uM after 24 hrs by light microscopic analysis relative to control; type: functional, cell-based
Rattus norvegicus [22] = organism: Rattus norvegicus; experiment: Inhibition of rat AMPK assessed as residual activity at 10 uM relative to control
A-375 [23] = experiment: Cell cycle arrest in human A375 cells assessed as accumulation at G0-G1 phase at 40 uM after 48 hrs by FACS flow cytometric analysis (reference value: 55.4%); type: functional
Oryctolagus cuniculus [24] = organism: Oryctolagus cuniculus; experiment: Inhibition of rabbit MKK1 assessed as residual activity at 10 uM relative to control
A-375 [25] = experiment: Cell cycle arrest in human A375 cells assessed as accumulation at sub-G1 phase at 40 uM after 48 hrs by FACS flow cytometric analysis (reference value: 2.17%); type: functional
[26] = molecular target: Dual specificity tyrosine-phosphorylation-regulated kinase 1A (Rattus norvegicus) (UniProt Q63470); experiment: Inhibition of rat DYRK1alpha assessed as residual activity at 10 uM relative to control
A-375 [27] = experiment: Cell cycle arrest in human A375 cells assessed as accumulation at G0-G1 phase at 20 uM after 48 hrs by FACS flow cytometric analysis (reference value: 55.4%); type: functional
[28] = molecular target: Casein kinase I isoform delta (Rattus norvegicus) (UniProt Q06486); experiment: Inhibition of rat CK1delta assessed as residual activity at 10 uM relative to control
[29] = molecular target: Proto-oncogene tyrosine-protein kinase Src (Homo sapiens) (UniProt P12931); experiment: Inhibition of human SRC assessed as residual activity at 10 uM relative to control
A-375 [30] = experiment: Cell cycle arrest in human A375 cells assessed as accumulation at S phase at 10 uM after 48 hrs by FACS flow cytometric analysis (reference value: 25.1%); type: functional
A-375 [31] = experiment: Cell cycle arrest in human A375 cells assessed as accumulation at S phase at 20 uM after 48 hrs by FACS flow cytometric analysis (reference value: 25.1%); type: functional
A-375 [32] = experiment: Cell cycle arrest in human A375 cells assessed as accumulation at G0-G1 phase at 80 uM after 48 hrs by FACS flow cytometric analysis (reference value: 55.4%); type: functional
[33] = molecular target: T1, Serine/threonine-protein kinase Chk1 (Homo sapiens, UniProt O14757); experiment: Inhibition of human CHK1 in presence of 20 uM ATP
T1 sequence (O14757 whole entry): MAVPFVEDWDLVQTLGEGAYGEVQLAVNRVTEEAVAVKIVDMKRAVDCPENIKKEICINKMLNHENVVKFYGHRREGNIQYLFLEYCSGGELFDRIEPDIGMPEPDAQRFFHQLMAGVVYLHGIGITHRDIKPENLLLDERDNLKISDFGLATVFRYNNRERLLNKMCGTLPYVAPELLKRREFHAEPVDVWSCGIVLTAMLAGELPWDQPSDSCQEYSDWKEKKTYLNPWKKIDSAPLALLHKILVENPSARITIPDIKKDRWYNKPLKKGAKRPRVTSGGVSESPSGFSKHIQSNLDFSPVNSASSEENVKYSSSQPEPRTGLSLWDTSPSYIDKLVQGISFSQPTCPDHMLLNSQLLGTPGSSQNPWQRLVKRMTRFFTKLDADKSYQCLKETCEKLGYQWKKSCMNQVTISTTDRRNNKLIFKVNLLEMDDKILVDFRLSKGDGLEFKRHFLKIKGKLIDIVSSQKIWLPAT

A-375 [34] = experiment: Cell cycle arrest in human A375 cells assessed as accumulation at G2-M phase at 20 uM after 48 hrs by FACS flow cytometric analysis (reference value: 17.3%); type: functional
[35] = molecular target: T2, Casein kinase I/MDM2 (Homo sapiens) (UniProt Q00987+P48729); experiment: Inhibition of CK1-MDM2 complex in human A375 cells assessed as increase in […] protein level at 0.2 to 40 uM after 24 hrs by immunoblotting analysis; type: cell-based; conditions: A-375
T2 sequence (P48729 whole entry, looked up): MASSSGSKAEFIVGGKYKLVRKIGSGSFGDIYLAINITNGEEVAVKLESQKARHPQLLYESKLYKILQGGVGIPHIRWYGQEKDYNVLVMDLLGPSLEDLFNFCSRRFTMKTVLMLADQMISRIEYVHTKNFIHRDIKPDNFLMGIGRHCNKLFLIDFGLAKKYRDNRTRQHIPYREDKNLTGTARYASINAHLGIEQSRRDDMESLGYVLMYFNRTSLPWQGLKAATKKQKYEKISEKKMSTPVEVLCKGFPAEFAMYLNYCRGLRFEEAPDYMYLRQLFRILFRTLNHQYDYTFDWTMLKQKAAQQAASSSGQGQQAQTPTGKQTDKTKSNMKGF
T2 sequence (Q00987 whole entry, looked up): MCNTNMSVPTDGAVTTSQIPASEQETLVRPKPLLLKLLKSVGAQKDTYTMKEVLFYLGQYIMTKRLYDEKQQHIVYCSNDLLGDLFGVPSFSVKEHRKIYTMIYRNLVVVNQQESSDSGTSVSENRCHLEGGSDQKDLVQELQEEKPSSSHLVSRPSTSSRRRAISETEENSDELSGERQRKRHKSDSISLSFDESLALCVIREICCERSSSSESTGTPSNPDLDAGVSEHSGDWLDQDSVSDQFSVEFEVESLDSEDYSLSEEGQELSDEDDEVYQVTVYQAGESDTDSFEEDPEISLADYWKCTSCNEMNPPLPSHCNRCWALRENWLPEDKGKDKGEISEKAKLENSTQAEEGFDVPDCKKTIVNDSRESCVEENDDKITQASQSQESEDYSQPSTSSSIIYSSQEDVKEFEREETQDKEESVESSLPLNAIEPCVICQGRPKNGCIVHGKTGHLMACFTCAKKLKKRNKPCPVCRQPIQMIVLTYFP

[36] = molecular target: T2, Casein kinase I/MDM2 (Homo sapiens); experiment: Inhibition of CK1-MDM2 complex in human A375 cells assessed as increase in p53 protein level at 0.2 to 40 uM after 24 hrs by immunoblotting analysis; type: cell-based; conditions: A-375
[37] = molecular target: T2, Casein kinase I/MDM2 (Homo sapiens); experiment: Inhibition of CK1-MDM2 complex in human A375 cells assessed as effect on p21 protein level at 0.2 to 40 uM after 24 hrs by immunoblotting analysis; type: cell-based; conditions: A-375
[38] = molecular target: T2, Casein kinase I/MDM2 (Homo sapiens); experiment: Inhibition of CK1-MDM2 complex in human A375 cells assessed as decrease in MDM2 protein level at 0.2 to 40 uM after 24 hrs by immunoblotting analysis; type: cell-based; conditions: A-375

SMILES: COc1cc(OC)c(C=C2C(=O)Nc3ccccc32)c(OC)c1
Activity (Rattus norvegicus [1]): 71%
Activity (Oryctolagus cuniculus [2]): 86%
Activity [3]: 78%
Activity [4]: 83%
Activity [5]: 73%
Activity [6]: 70%
Activity (Bos taurus): 82%
Activity [7]: 9%

IC50 [13]: 353 nM
IC50 [15]: 4150 nM
Activity [16]: 113%
Activity [20]: 105%
Activity (Rattus norvegicus [22]): 98%
Activity (Oryctolagus cuniculus [24]): 93%
Activity [26]: 86%
Activity [28]: 4%
Activity [29]: 82%
IC50 [33]: Not Active
SMILES: NC(=O)c1ccc(-c2nc(-c3ccc4c(c3)OCCO4)c(-c3ccccn3)[nH]2)cc1
Activity (A-375 [8]): 13.7%
Activity (A-375 [9]): 3.92%
Activity (A-375 [10]): 9.33%
Activity (A-375 [11]): 9.66%
Activity (A-375 [12]): 4.9%
Activity (A-375 [14]): 6.96%
Activity (A-375 [17]): 55.4%
Activity (A-375 [18]): 24.3%
Activity (A-375 [19]): 32.7%
Activity (A-375 [21]): Active
Activity (A-375 [23]): 43.1%
Activity (A-375 [25]): 22.3%
Activity (A-375 [27]): 41.9%
Activity (A-375 [30]): 26.6%
Activity (A-375 [31]): 31.9%
Activity (A-375 [32]): 52.9%
Activity (A-375 [34]): 18.8%

inhibition [35]: Active
inhibition [36]: Active
inhibition [37]: inactive
inhibition [38]: Active
SMILES: O=C(Nc1n[nH]c2ncc(-c3cccnc3)cc12)C1CCCC1
